The values that follow come from patent US12729377B2, “RNAi agents and compositions for inhibiting expression of angiopoietin-like 3 (ANGPTL3), and methods of use” (Arrowhead Pharmaceuticals, Inc., priority 2017, dated 2026).

In the oligonucleotide strings, read from the 5' end, every base follows the letter of its sugar. An asterisk marks phosphorothioate; unmarked linkages are phosphodiester. Other units and linkages are bracketed, terminal groups are in braces. A string of capitals states the bases alone. {NAG37} = tridentate N-acetyl-galactosamine targeting ligand, structure (NAG37)s; [invAb] = inverted abasic unit; m = 2'-O-methyl; f = 2'-fluoro

One data set deals with ANGPTL3 gene. Kind of data set: Example 10: serum total cholesterol in mice. Type of data set: in vivo. Particulars: 0.5 mg/kg single SC injection day 1, female C57bl/6 mice, n=3, ratio to D5W control. The procedure: To assess the in vivo activity of further ANGPTL3 RNAi agents that are designed to target position 304 on the ANGPTL3 gene, six- to eight-week-old female C57bl/6 mice were used. Pre-dose serum samples were taken at day −1 after a four hour fast. At day 1, each mouse was given a single subcutaneous administration of 200 μl containing 0.5 mg/kg (mpk) of an ANGPTL3 RNAi agent in D5W (dextrose in 5% water), or control (D5W) with no RNAi agent, according to the dosing groups recited in Table 47.
Each of the RNAi agents included a modified sequence and an N-acetyl-galactosamine-containing targeting ligand conjugated to the 5′ terminal end of the sense strand. (See Tables 3, 4, and 5 for modified sequences and targeting ligand structures). As noted above, each of the ANGPTL3 RNAi agents dosed in this study included nucleotide sequences designed to target the ANGPTL3 gene at position 304. The injections were performed between the skin and muscle (i.e. subcutaneous injections) into the loose skin over the neck and shoulder area. Three (3) mice in each group were tested (n=3). Serum was collected on days 8, 15, 22, 29, and for some groups on day 36 (i.e., Groups 1, 2, and 9-13 only). Mice were fasted for four hours prior to each collection. ANGPTL3 protein levels in serum were measured by ELISA assay (R&D Systems), according to the manufacturer's recommendations. Triglycerides, total cholesterol, high-density lipoprotein (HDL), and low-density lipoprotein (LDL) in serum were measured on a Cobas® Integra 400 (Roche Diagnostics), according to the manufacturer's recommendations.
The ANGPTL3 protein levels, triglyceride levels, total cholesterol levels, HDL levels, and LDL levels for each animal were normalized. For normalization, the level of ANGPTL3 protein, triglyceride, HDL, and total cholesterol, respectively, for each animal at a time point, was divided by the pre-treatment level of expression in that animal (in this case at day −1) to determine the ratio of expression “normalized to pre-treatment.” Expression at a specific time point was then normalized to the D5W control group by dividing the “normalized to pre-treatment” ratio for an individual animal by the mean “normalized to pretreatment” ratio of all mice in the D5W control group.

The test system of the next data set is ANGPTL3 mRNA. Kind of data set: Example 11: liver ANGPTL3 mRNA by RT-qPCR in mice. It is filed as in vivo, C57bl/6 mice. The procedure:
To assess the dose response of ANGPTL3 RNAi agent AD05488, six- to eight-week-old female C57bl/6 mice were used. Pre-dose serum samples were taken at day −1 after a four hour fast. At day 1, each mouse was given a single subcutaneous administration of 200 μl containing the respective mg/kg dose of an ANGPTL3 RNAi agent in D5W (dextrose in 5% water), or control (D5W) with no RNAi agent, according to the dosing groups recited in Table 53:
Additionally, ANGPTL3 mRNA levels were also assessed. All of the mice from each respective group were sacrificed on day 29 after serum collection, livers were harvested, and approximately 100 mg liver samples were collected and snap-frozen in liquid nitrogen for RNA isolation.

As for “AD05488: RNAi agent duplex: antisense AM07235-AS, sense AM07234-SS (antisense mU*fA*mC*fUmGfAmUfCmAfAmAfUmAfUmGfUmUfGmAfG*mC; sense {NAG37}*[invAb]*mGmCmUmCmAmAmCmAfUfAfUmUmUmGmAmUmCmAmGmUmA*[invAb])”, the “Average Total Cholesterol Normalized to Pre-Treatment and Control” value was 0.659 with ANGPTL3 gene (Day 8); 0.808 in the data set on ANGPTL3 gene (Day 15); 0.763 in the data set on ANGPTL3 gene (Day 22); 0.743 with ANGPTL3 gene (Day 29); 0.824 in the data set with ANGPTL3 gene (Day 36). Besides, the “Avg Relative ANGPTL3 mRNA, Normalized to Control” value was 0.798 in the data set with ANGPTL3 mRNA (0.05 mg/kg single sc day 1, Day 29); 0.563 with ANGPTL3 mRNA (0.1 mg/kg single sc day 1, Day 29); 0.277 in the data set with ANGPTL3 mRNA (0.5 mg/kg single sc day 1, Day 29); 0.123 in the data set with ANGPTL3 mRNA (1.0 mg/kg single sc day 1, Day 29); 0.036 with ANGPTL3 mRNA (2.5 mg/kg single sc day 1, Day 29); 0.038 with ANGPTL3 mRNA (5.0 mg/kg single sc day 1, Day 29). In addition, the “reduction in ANGPTL3 mRNA” value with ANGPTL3 mRNA (day 29, single subcutaneous dose, C57bl/6 mice) was “reduction”.
